In paper PMC6173509, “C-3- and C-4-Substituted Bicyclic Coumarin Sulfamates as Potent Steroid Sulfatase Inhibitors” (ACS Omega, 2018):

Experiments:
steroid sulfatase (STS) [1] = biological target: T1, steroid sulfatase (STS) (Homo sapiens, UniProt P08842); experiment: STS inhibition in placental microsomes; format: biochemical; design: a placental microsomal preparation from a sulfatase-positive human placenta from a normal term pregnancy; from tissue; host or cells: human placenta (microsomal preparation); conditions: 20 μM E1S; for inhibition at 0.01 µM: 0.01 μM inhibitor; for inhibition at 0.1 µM: 0.1 μM inhibitor; for inhibition at 1 µM: 1 μM inhibitor; for inhibition at 10 µM: 10 μM inhibitor
T1 sequence (P08842 22-583): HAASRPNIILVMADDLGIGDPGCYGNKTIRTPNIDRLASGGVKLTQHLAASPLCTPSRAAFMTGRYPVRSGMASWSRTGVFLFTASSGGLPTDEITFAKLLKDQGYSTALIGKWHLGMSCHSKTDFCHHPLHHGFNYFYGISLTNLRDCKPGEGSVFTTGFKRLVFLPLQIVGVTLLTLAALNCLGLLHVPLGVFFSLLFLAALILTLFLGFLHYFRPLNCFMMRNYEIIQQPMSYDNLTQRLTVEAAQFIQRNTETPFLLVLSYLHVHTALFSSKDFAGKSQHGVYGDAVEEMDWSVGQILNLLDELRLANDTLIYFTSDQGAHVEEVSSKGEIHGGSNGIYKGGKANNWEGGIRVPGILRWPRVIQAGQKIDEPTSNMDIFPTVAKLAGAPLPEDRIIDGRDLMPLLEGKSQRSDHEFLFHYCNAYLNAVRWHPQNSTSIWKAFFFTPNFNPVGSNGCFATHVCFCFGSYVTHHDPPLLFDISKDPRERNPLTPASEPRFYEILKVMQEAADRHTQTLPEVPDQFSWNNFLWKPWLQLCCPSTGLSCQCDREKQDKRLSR

steroid sulfatase (STS) [2] = biological target: T1, steroid sulfatase (STS); experiment: STS inhibition in intact MCF-7 breast cancer cells; format: cell-based; design: endogenous in cells; host or cells: MCF-7 breast cancer cells; conditions: for inhibition at 0.1 µM: MCF7, read-out: % Inhibition of STS Activity in Intact MCF-7 Breast Cancer Cells at 0.1 μM; for inhibition at 1 µM: MCF7, read-out: % Inhibition of STS Activity in Intact MCF-7 Breast Cancer Cells at 1 μM; for inhibition at 10 µM: MCF7, read-out: % Inhibition of STS Activity in Intact MCF-7 Breast Cancer Cells at 10 μM; for IC50: 3 nM E1S

Question: Which inhibition at 0.01 µM (steroid sulfatase (STS) [1]) does the source give for `CCCCc1cc(=O)oc2cc(OS(N)(=O)=O)ccc12` [compound 9, 4-Butylcoumarin-7-O-sulfamate] here?
Answer: Its inhibition at 0.01 µM is 10%.

Question: What about the inhibition at 0.1 µM (steroid sulfatase (STS) [1]) of the same compound?
Answer: Its inhibition at 0.1 µM is 49%.

Question: What about the inhibition at 1 µM (steroid sulfatase (STS) [1]) of the same compound?
Answer: The inhibition at 1 µM was 91%.

Question: And the inhibition at 10 µM (steroid sulfatase (STS) [1])?
Answer: Its inhibition at 10 µM is 98%.

Question: And the IC50 (steroid sulfatase (STS) [1])?
Answer: Its IC50 is 102 nM.

Question: What about the inhibition at 0.1 µM (steroid sulfatase (STS) [2]) of the same compound?
Answer: Its inhibition at 0.1 µM is 85%.

Question: And the inhibition at 1 µM (steroid sulfatase (STS) [2])?
Answer: The inhibition at 1 µM was 91%.

Question: What about the inhibition at 10 µM (steroid sulfatase (STS) [2]) of the same compound?
Answer: The inhibition at 10 µM was 93%.

Question: Which results are given for `CCCCCc1cc(=O)oc2cc(OS(N)(=O)=O)ccc12` [compound 10, 4-Pentylcoumarin-7-O-sulfamate]?
Answer: inhibition at 0.01 µM (steroid sulfatase (STS) [1]): 22%; inhibition at 0.1 µM (steroid sulfatase (STS) [1]): 70%; inhibition at 1 µM (steroid sulfatase (STS) [1]): 97%; inhibition at 10 µM (steroid sulfatase (STS) [1]): 99%; IC50 (steroid sulfatase (STS) [1]): 40 nM; IC50 (steroid sulfatase (STS) [2]): 10 nM; inhibition at 0.01 µM (steroid sulfatase (STS) [2]; MCF7, read-out: % Inhibition of STS Activity in Intact MCF-7 Breast Cancer Cells at 0.01 μM): 52%; inhibition at 0.1 µM (steroid sulfatase (STS) [2]): 88%; inhibition at 1 µM (steroid sulfatase (STS) [2]): 92%; inhibition at 10 µM (steroid sulfatase (STS) [2]): 95%

Question: Which inhibition at 0.01 µM (steroid sulfatase (STS) [1]) does the source give for `CCCCCCc1cc(=O)oc2cc(OS(N)(=O)=O)ccc12` [compound 11, 4-Hexylcoumarin-7-O-sulfamate] here?
Answer: The inhibition at 0.01 µM was 6%.

Question: And the inhibition at 0.1 µM (steroid sulfatase (STS) [1])?
Answer: The inhibition at 0.1 µM was 70%.

Question: And the inhibition at 1 µM (steroid sulfatase (STS) [1])?
Answer: The inhibition at 1 µM was 97%.

Question: What about the inhibition at 10 µM (steroid sulfatase (STS) [1]) of the same compound?
Answer: The inhibition at 10 µM was 99%.

Question: What about the IC50 (steroid sulfatase (STS) [1]) of the same compound?
Answer: Its IC50 is 52 nM.

Question: What about the inhibition at 0.1 µM (steroid sulfatase (STS) [2]) of the same compound?
Answer: Its inhibition at 0.1 µM is 87%.

Question: What about the inhibition at 1 µM (steroid sulfatase (STS) [2]) of the same compound?
Answer: Its inhibition at 1 µM is 90%.

Question: And the inhibition at 10 µM (steroid sulfatase (STS) [2])?
Answer: The inhibition at 10 µM was 93%.

Question: How did the inhibition at 0.01 µM (steroid sulfatase (STS) [1]) turn out when `CCCCCCCc1cc(=O)oc2cc(OS(N)(=O)=O)ccc12` [compound 12, 4-Heptylcoumarin-7-O-sulfamate] was run?
Answer: The inhibition at 0.01 µM was 8%.

Question: What about the inhibition at 0.1 µM (steroid sulfatase (STS) [1]) of the same compound?
Answer: The inhibition at 0.1 µM was 64%.

Question: And the inhibition at 1 µM (steroid sulfatase (STS) [1])?
Answer: Its inhibition at 1 µM is 97%.

Question: What about the inhibition at 10 µM (steroid sulfatase (STS) [1]) of the same compound?
Answer: The inhibition at 10 µM was 99%.

Question: What about the IC50 (steroid sulfatase (STS) [1]) of the same compound?
Answer: The IC50 was 90 nM.

Question: And the inhibition at 0.1 µM (steroid sulfatase (STS) [2])?
Answer: Its inhibition at 0.1 µM is 93%.

Question: And the inhibition at 1 µM (steroid sulfatase (STS) [2])?
Answer: The inhibition at 1 µM was 95%.

Question: And the inhibition at 10 µM (steroid sulfatase (STS) [2])?
Answer: Its inhibition at 10 µM is 99%.

Question: Which results are given for `CCCCCCCCc1cc(=O)oc2cc(OS(N)(=O)=O)ccc12` [compound 13, 4-Octylcoumarin-7-O-sulfamate]?
Answer: inhibition at 0.01 µM (steroid sulfatase (STS) [1]): 28%; inhibition at 0.1 µM (steroid sulfatase (STS) [1]): 74%; inhibition at 1 µM (steroid sulfatase (STS) [1]): 97%; inhibition at 10 µM (steroid sulfatase (STS) [1]): 99%; IC50 (steroid sulfatase (STS) [1]): 68 nM; inhibition at 0.1 µM (steroid sulfatase (STS) [2]): 90%; inhibition at 1 µM (steroid sulfatase (STS) [2]): 97%; inhibition at 10 µM (steroid sulfatase (STS) [2]): 99%

Question: Which results are given for `CCCCCCCCCCCc1cc(=O)oc2cc(OS(N)(=O)=O)ccc12` [compound 16, 4-Undecylcoumarin-7-O-sulfamate]?
Answer: inhibition at 0.01 µM (steroid sulfatase (STS) [1]): 8%; inhibition at 0.1 µM (steroid sulfatase (STS) [1]): 56%; inhibition at 1 µM (steroid sulfatase (STS) [1]): 92%; inhibition at 10 µM (steroid sulfatase (STS) [1]): 97%; IC50 (steroid sulfatase (STS) [1]): 73 nM

Question: With `CC(C)c1cc(=O)oc2cc(OS(N)(=O)=O)ccc12` [compound 19, 4-(Prop-2-yl)coumarin-7-O-sulfamate] as the compound, how does the inhibition at 0.1 µM (steroid sulfatase (STS) [1]) read?
Answer: The inhibition at 0.1 µM was 86%.

Question: What about the inhibition at 1 µM (steroid sulfatase (STS) [1]) of the same compound?
Answer: The inhibition at 1 µM was 90%.

Question: What about the inhibition at 10 µM (steroid sulfatase (STS) [1]) of the same compound?
Answer: The inhibition at 10 µM was 94%.

Question: How did the inhibition at 0.1 µM (steroid sulfatase (STS) [1]) turn out when `CC(C)Cc1cc(=O)oc2cc(OS(N)(=O)=O)ccc12` [compound 20, 4-(1′,1′-Dimethylethyl)coumarin-7-O-sulfamate] was run?
Answer: The inhibition at 0.1 µM was 19%.

Question: What about the inhibition at 1 µM (steroid sulfatase (STS) [1]) of the same compound?
Answer: Its inhibition at 1 µM is 97%.

Question: With `NS(=O)(=O)Oc1ccc2c(CC34CC5CC(CC(C5)C3)C4)cc(=O)oc2c1` [compound 27, 4-(1-Adamantanemethyl)coumarin-7-O-sulfamate] as the compound, how does the inhibition at 0.1 µM (steroid sulfatase (STS) [1]) read?
Answer: Its inhibition at 0.1 µM is 8%.

Question: And the inhibition at 1 µM (steroid sulfatase (STS) [1])?
Answer: The inhibition at 1 µM was 96%.

Question: For `CCCCCCCCCCCc1c(C)c2ccc(OS(N)(=O)=O)cc2oc1=O` [compound 34, 4-Methyl-3-undecylcoumarin-7-O-sulfamate], which IC50 (steroid sulfatase (STS) [1]) is on record?
Answer: The IC50 was 2000 nM.

Question: With `CCCCCCCCCCCCCCc1c(C)c2ccc(OS(N)(=O)=O)cc2oc1=O` [compound 37, 4-Methyl 3-tetradecylcoumarin-7-O-sulfamate] as the compound, how does the IC50 (steroid sulfatase (STS) [1]) read?
Answer: Its IC50 is 10000 nM.

Question: `Cc1c(Cl)c(=O)oc2cc(OS(N)(=O)=O)ccc12` [compound 39, 3-Chloro-4-methylcoumarin-7-O-sulfamate] was tested. Which IC50 (steroid sulfatase (STS) [2]) did it give?
Answer: The IC50 was 600 nM.

Question: What about the inhibition at 0.1 µM (steroid sulfatase (STS) [2]) of the same compound?
Answer: The inhibition at 0.1 µM was 29%.

Question: And the inhibition at 1 µM (steroid sulfatase (STS) [2])?
Answer: Its inhibition at 1 µM is 67%.

Question: And the inhibition at 10 µM (steroid sulfatase (STS) [2])?
Answer: Its inhibition at 10 µM is 87%.

Question: What does the source list for `Cc1c(CC2CCCCC2)c(=O)oc2cc(OS(N)(=O)=O)ccc12` [compound 44, 3-Cyclohexylmethyl-4-methylcoumarin-7-O-sulfamate]?
Answer: inhibition at 0.1 µM (steroid sulfatase (STS) [1]): 74%; inhibition at 1 µM (steroid sulfatase (STS) [1]): 99%

Question: For `Cc1c(CCC2CCCCC2)c(=O)oc2cc(OS(N)(=O)=O)ccc12` [compound 45, 3-(2-Cyclohexylethyl)-4-methylcoumarin-7-O-sulfamate], which inhibition at 0.1 µM (steroid sulfatase (STS) [1]) is on record?
Answer: Its inhibition at 0.1 µM is 37%.

Question: And the inhibition at 1 µM (steroid sulfatase (STS) [1])?
Answer: Its inhibition at 1 µM is 99%.
